“Also recorded” adds a separate entry of the source. Residues, ends and D or L forms follow the SMILES beside them.

The record followed here is patent US9243036B2, “Anti-microbial activity of synthetic peptides” (THE UNITED STATES OF AMERICA, as represented by the …, priority 2012, dated 2016).

What all share (assay type): cell-based
Assay [1] concerns E. coli. Briefly: 2 h incubation of mid-logarithmic cultures with peptide, CFU on NA plates. As to conditions: peptide 12.5, 25 and 50 μg/ml, inoculum 10^5 CFU/ml. Here is the method: (§1) Mid-logarithmic phase cultures of bacteria with an inoculum of 10^5 CFU/ml were incubated with peptide concentrations ranging from 0 to 50 μg/ml in a shaker incubator for 2 h following which the samples were plated on NA agar plates and CFU determined.

In assay [2] the test system is P. aeruginosa. Described as above. As to conditions: peptide 12.5, 25 and 50 μg/ml, inoculum 10^5 CFU/ml. Here is the method: as §1
Assay [3] concerns B. cereus. The assay is described as follows: MIC by standard dilution assay (CLSI). Here is the method:
(§2) In vitro anti-bacterial activity of EC5. The test microorganisms mentioned earlier in the experimental procedures were used to evaluate the bactericidal activity of EC5 peptide. The minimum inhibitory concentrations (MICs) of the peptide were determined by standard dilution assay as recommended by Clinical and Laboratory Standard Institutes (CLSI) guidelines (Azad, M. A., et al., (2011) Antimicrob. Agents Chemother. 55, 2137-2145). Bacteria were grown to mid-logarithmic phase in cation-supplemented Mueller-Hinton broth (MHB) (Becton Dickinson, Sparks, Md.) on an orbital shaker (37° C.) and diluted to a 0.5 McFarland standard to a final volume of 1 ml. Decreasing concentrations of the peptide were incubated with the microorganisms. Results were recorded by visual inspection after 24 h of incubation at 37° C. Assay was repeated three separate times to ensure reproducibility. […] EC5 concentrations 0x, 0.5x, 1x, and 2×MIC were incubated with logarithmic phase of bacteria of approximately 10^5 CFU/ml in an orbital shaker for 48 h at 37° C. Samples were drawn and plated on NA plates. Polymyxin B was used as a positive control and peptide with no anti-bacterial activity from our previous studies was used as a negative control.

The next assay deals with Gram-positive strains. The assay is described as follows: MIC by standard dilution assay (CLSI). Here is the method:
as §2

The test system of assay [4] is S. aureus. The assay is described as follows: MIC by standard dilution assay (CLSI). Here is the method: as §2
The subject of assay [5] is S. epidermidis. Briefly: MIC by standard dilution assay (CLSI). The protocol: as §2
For assay [6], the system named is B. cereus. The assay is described as follows: Anti-bacterial activity in spiked platelets. As to conditions: even at high concentrations. Here is the method: (§3) The anti-bacterial activity of the peptide in the presence of homologous plasma and platelets were assessed. Platelet Concentrates (PCs) in bags were obtained and stored at room temperature as described earlier (Mohan, K. V. et al., (2010) Transfusion 50, 166-173). Plasma was isolated from the PC bag by collecting 25 ml of PCs and subjecting the sample to a low speed centrifugation step to separate PLT-rich plasma from plasma. For assays log phase cultures of bacteria grown in Luria-Bertani (LB) broth were centrifuged at 3000×g and suspended in 1×PBS pH7.4. Bacterial titers were estimated by measuring the optical density (OD) and microscopy. Approximately 10^5 CFU/ml of each bacterial strain was spiked into 0.1 ml of plasma or platelets and incubated with peptide at concentrations ranging from 50 to 0 μg/ml. Incubation was carried out at room temperature for 2 h on a shaker. At the end of 2-h exposure period, a fixed volume of the suspension was plated on NA plates, and incubating at 37° C. for 18 to 24 h. Bactericidal activity was measured by log-reduction by viable bacteria.

For assay [7], the system named is E. coli. Briefly: Anti-bacterial activity in spiked platelets. As to conditions: 2 h. The protocol: as §3
For a further assay, the system named is K pneumoniae. The assay is described as follows: Anti-bacterial activity in spiked platelets. As to conditions: 2 h. The protocol:
as §3

Assay [8] has as its system P. aeruginosa. Briefly: Anti-bacterial activity in spiked platelets. As to conditions: EC5 25 and 12.5 μg/ml; 2 h. Here is the method: as §3
In assay [9] the test system is S. aureus. Briefly: Anti-bacterial activity in spiked platelets. As to conditions: even at high concentrations. Here is the method:
as §3

The subject of assay [10] is S. epidermidis. Briefly: Anti-bacterial activity in spiked platelets. As to conditions: even at high concentrations. Here is the method:
as §3

Assay [11] deals with E. coli. The assay is described as follows: Outer membrane permeabilization (NPN uptake) assay. Here is the method:
(§4) Membrane-permeabilizing activity of the peptide was determined using the fluorescent dye N-phenyl-1-napthylamine (NPN) assay, as described earlier (Loh et al. (1984) Antimicrob. Agents Chemother. 26, 546-551), with intact cells of E. coli and P. aeruginosa. The increase in fluorescence due to partitioning of NPN uptake into outer membrane (OM) was measured by addition of increasing concentrations of peptide. Polymyxin B (PMB) was taken as a positive control due to its outer membrane permeabilizing properties. All experiments were performed three times. S. aureus was used as a negative control.
(§5) Outer membrane permeabilizing activity of EC5 against E. coli and P. aeruginosa was determined using the fluorescent dye N-phenyl-1-napthylamine (NPN) assay. The outer membrane of a bacterial cell is impermeable to NPN under normal conditions. However permeabilization of outer membrane by anti-microbial peptides allows the uptake of NPN thereby leading to increase in fluorescence in the cell. […] The outer membrane permeabilizing activity of EC5 was compared to polymyxin B, a well studied membrane permeabilising agent (Daugelavicius, R., et al., (2000) Antimicrob. Agents Chemother. 44, 2969-2978).

Assay [12] concerns P. aeruginosa. Briefly: Outer membrane permeabilization (NPN uptake) assay. The protocol: as §4, §5
The test system of assay [13] is E. coli. The assay is described as follows: Membrane permeability by PI and SYTO9 uptake (LIVE/DEAD BACLIGHT). As to conditions: SYTO9 and PI staining. Here is the method:
(§6) The effects of EC5 on the membrane integrity of E. coli and P. aeruginosa cells were assessed using the LIVE/DEAD BACLIGHT™ kit (Invitrogen, Oregon) according to the manufacturer's protocol. Membrane integrity of the cells after the addition of different concentrations of peptide EC5 was measured using fluorescence micro plate reader (BioTek Instruments, Winooski, Vt.). Experiments were done in triplicates. PMB was used as a positive control.
(§7) The membrane permeabilizing activity of EC5 was also studied using the SYTO9 and PI staining method. SYTO9 stain labels both live and dead bacteria when alone, but propidium iodide stains only cells with damaged membranes, reducing the level of green fluorescent SYTO9 when both the dyes are present. […] The ratio of green versus red fluorescence can be calculated as a measure of live bacteria. […] Polymyxin B, an AMP with a net charge of +5 with membrane permeabilizing activity was used as positive control.

Assay [14] has as its system P. aeruginosa. The description is as above. As to conditions: SYTO9 and PI staining. Here is the method: as §6, §7
[15] abbreviates: increasing peptide concentrations.

Take `CC[C@H](C)[C@H](NC(=O)[C@H](CCCCN)NC(=O)[C@H](CCCNC(=N)N)NC(=O)[C@H](Cc1ccccc1)NC(=O)[C@H](CC(C)C)NC(=O)[C@H](CC(C)C)NC(=O)[C@@H](N)CCCNC(=N)N)C(=O)N[C@@H](CCCNC(=N)N)C(=O)N[C@@H](CCCNC(=N)N)C(=O)N[C@@H](CC(C)C)C(=O)N[C@@H](CCCCN)C(=O)N[C@@H](CCCNC(=N)N)C(=O)O` [EC5, RLLFRKIRRLKR] (H-RLLFRKIRRLKR-OH; N-terminus and C-terminus assumed): the “reduction of E. coli” value with E. coli [1] is listed as 5 log10 CFU/ml. The “reduction of P. aeruginosa” value in the assay with P. aeruginosa [2] turned out to be 5 log10 CFU/ml. In addition, the “activity against B. cereus” value in the assay with B. cereus [3] was “not active”. Further, the “activity against Gram-positive strains” value in the assay with Gram-positive strains is reported as “no activity”. Also, the “activity against S. aureus” value with S. aureus [4] is on record as “not active”. The “activity against S. epidermidis” value in the assay with S. epidermidis [5] is given as “not active”. In addition, the “reduction of B. cereus in platelets” value in the assay with B. cereus [6] is given as “No significant reduction”. Besides, the “reduction of E. coli in platelets” value in the assay on E. coli [7] (EC5 12.5 μg/ml) came out at 4.5 log10 CFU/ml. The “E. coli colonies in platelets” value with E. coli [7] (EC5 50 and 25 μg/ml) is listed as “no detectable E. coli colonies; also recorded: complete inhibition”. Besides, the “reduction of K pneumoniae in platelets” value in the assay on K pneumoniae (EC5 12.5 μg/ml) came out at 1 log10CFU/m; in the assay with K pneumoniae (EC5 25 μg/ml), 1.5 log10CFU/m; with K pneumoniae (EC5 50 μg/ml) it was 2.5 log10CFU/m. Also, the “reduction of P. aeruginosa in platelets” value in the assay with P. aeruginosa [8] is 4 log10 CFU/ml. Besides, in the assay with S. aureus [9], the “reduction of S. aureus in platelets” value is “No significant reduction”. For the same molecule, the “reduction of S. epidermidis in platelets” value in the assay on S. epidermidis [10] is “No significant reduction”. For the same molecule, the “increase in NPN fluorescence compared with polymyxin B” value in the assay on E. coli [11] (at similar concentrations) and in the assay on P. aeruginosa [12] (at similar concentrations) was “higher than for polymyxin B” in each case. In addition, the “NPN fluorescence (outer membrane permeabilization)” value with E. coli [11] (setting [15]) and in the assay on P. aeruginosa [12] (setting [15]) was “dose-dependent increase in fluorescence” throughout. Moreover, the entries for the “concentration showing maximum permeability of cells” value with E. coli [13] and in the assay with P. aeruginosa [14] were 6.25 µg/mL and 12.5 µg/mL, respectively.
